Measured values published in paper PMC2931804 (Clinical cancer research : an official journal of the …, 2010).

Experiments:
[1] = FU plasma pharmacokinetics; type: in vivo, human
[2] = vorinostat with FOLFOX; cited from earlier work

SMILES: O=c1[nH]cc(F)c(=O)[nH]1 [FU, 5-fluorouracil]
- FU Cmax with vorinostat relative to without (times lower) ([1]; 1,700 mg vorinostat once daily, cycle 2 vs cycle 1, statistically significant): 0.82 times
- Change in FU clearance with the addition of vorinostat ([1]; once-daily or twice-daily MTD): did not observe any decrease
- FU clearance at higher vorinostat dose-levels [2]: lower FU clearance
